# Data as given in PMC7037612, “Ketone Bodies Promote Amyloid-β1–40 Clearance in a Human in Vitro Blood–Brain Barrier Model” (International Journal of Molecular Sciences, 2020).
# B1: RAP: Receptor-associated protein, human, recombinant, E.coli; standard inhibitor for LRP1 (protein, UniProt P30533 35-357, looked up)
# Alpha-2-macroglobulin …: YSREKNQPKPSPKRESGEEFRMEKLNQLWEKAQRLHLPPVRLAELHADLKIQERDELAWKKLKLDGLDEDGEKEARLIRNLNVILAKYGLDGKKDARQVTSNSLSGTQEDGLDDPRLEKLWHKAKTSGKFSGEELDKLWREFLHHKEKVHEYNVLLETLSRTEEIHENVISPSDLSDIKGSVLHSRHTELKEKLRSINQGLDRLRRVSHQGYSTEAEFEEPRVIDLWDLAQSANLTDKELEAFREELKHFEAKIEKHNHYQKQLEIAHEKLRHAESVGDGERVSRSREKHALLEGRTKELGYTVKKHLQDLSGRISRARHNEL
# What was measured:
# [1] = test system: Aβ1–40Cy5 peptide transport across BLECs; test: Aβ1–40Cy5 peptide transport across BLECs; format: cell-based, human; conditions: 48 h ratio treatment; 200 nM RAP in basolateral compartment (LRP1 inhibitor) or 0.5 µM elacridar in apical compartment (P-gp inhibitor); 10 nM Aβ1–40Cy5, 30 min, 37 °C
# Protocol: Forty-eight hours after KB treatments, the apical-to-basolateral and the basolateral-to-apical transport of Aβ1-40 across BLECs was investigated as previously described (Briefly, for apical-to-basolateral studies, filters were transferred to new 12-well plates containing 1.5 mL of RH-HSA 0.1% (the receiver solution) per well. In the insert corresponding to the apical compartment, 0.5 mL of RH-HSA 0.1% supplemented with 10 nM Aβ1-40Cy5 peptide was added (the donor solution). For basolateral-to-apical studies, filters were transferred to 12-well plates containing 1.5 mL of RH-HSA 0.1% supplemented with 10 nM fluorescent Aβ1-40Cy5 (the donor solution). […] At the end of the incubation period, aliquots of the donor and receiver solutions were collected, and the fluorescence compounds (Aβ1-40Cy5 and LY) were measured with a spectrofluorimeter (Synergy H1). The radioactivity of [^3H]inulin was measured using a scintillation counter (Hidex 300 SL, Hidex, Turku, Finland). […] Determination of the cumulative fraction absorbed (amount permeated), FAcum versus time, FAcum was calculated from: (2) FAcum = ∑ (C(Ri))/(C(Di)), where C(Ri) was the receiver concentration at the end of the interval i and C(Di) was the donor concentration at the beginning of interval i. […] The apical-to-basolateral and the basolateral-to-apical Papp were determined by Equation (1) for each molecule. […]
# [2] = test system: [3H]inulin transport across BLECs; test: [3H]inulin transport across BLECs (non-specific transport marker); format: cell-based, human; conditions: 400 nM [3H]inulin, 30 min, 37 °C; for effect on basolateral-to-apical transport of [3H]inulin after ratio KB treatment: 48 h ratio treatment, 200 nM RAP basolateral or 0.5 µM elacridar apical
# Protocol: Forty-eight hours after KB treatments, the apical-to-basolateral and the basolateral-to-apical transport of Aβ1-40 across BLECs was investigated as previously described (Briefly, for apical-to-basolateral studies, filters were transferred to new 12-well plates containing 1.5 mL of RH-HSA 0.1% (the receiver solution) per well. In the insert corresponding to the apical compartment, 0.5 mL of RH-HSA 0.1% supplemented with 10 nM Aβ1-40Cy5 peptide was added (the donor solution). For basolateral-to-apical studies, filters were transferred to 12-well plates containing 1.5 mL of RH-HSA 0.1% supplemented with 10 nM fluorescent Aβ1-40Cy5 (the donor solution). In the apical compartment, 0.5 mL of RH-HSA 0.1% (the receiver solution) was added. In parallel, the apical-to-basolateral and the basolateral-to-apical transport of 400 nM [^3H]inulin was performed in the same way as the Aβ1-40Cy5 peptide transport, thus representing a paracellular marker. The BBB integrity was checked by measuring the PeLY as described in Section 4.6. […] At the end of the incubation period, aliquots of the donor and receiver solutions were collected, and the fluorescence compounds (Aβ1-40Cy5 and LY) were measured with a spectrofluorimeter (Synergy H1). The radioactivity of [^3H]inulin was measured using a scintillation counter (Hidex 300 SL, Hidex, Turku, Finland). The permeability (apparent permeability coefficient, cm.sec^−1) of Aβ1-40-Cy5 or [^3H]-inulin was calculated according to the following equation: (1) Papp = (k.V(R))/(A.60) as previously described. k was the transport rate (min^−1) defined as the slope obtained by linear regression of the cumulative fraction absorbed (FAcum) as a function of time (min), V(R) was the volume in the receiver chamber (mL), and A was the area of the filter (cm^2). Determination of the cumulative fraction absorbed (amount permeated), FAcum versus time, FAcum was calculated from: (2) FAcum = ∑ (C(Ri))/(C(Di)), where C(Ri) was the receiver concentration at the end of the interval i and C(Di) was the donor concentration at the beginning of interval i. […]
# BLEC monolayer = BLEC monolayer integrity: endothelial permeability to Lucifer Yellow (PeLY); format: cell-based, human
# Protocol: No significant pH variation was observed after KB treatment compared to the control. The integrity of the BLEC monolayer after 48 h of treatment with KBs was evaluated using the method described by Dehouck et al. (1992). Each coculture condition was performed in triplicate. The fluorescent integrity marker LY was used at a final concentration of 50 μM in RH buffer to obtain the endothelial permeability coefficient (Pe) from the apical-to-basolateral compartment. The fluorescence of LY in each compartment was measured using the excitation/emission wavelength (432/538 nm) using a microplate reader (Synergy H1). In this calculation method, both the filter without cell permeability (PSf = insert filter + matrigel coating) and filter plus cell permeability (PSt = insert filter + matrigel coating + ECs) were taken into account, according to the formula: 1/PSe = 1/[…] PS is the permeability x surface area product (in microliters per minute) obtained by dividing the volume cleared from the donor to the receiver compartment (in μL) for 1 h. […] balance (%) was calculated from the amount of compound recovered in the donor and receiver compartment at the end of the experiment divided by the total amount added in the donor compartment at time zero. To be taken into account for Pe determination, the mass balance should be between 80% and 120%.
# BLECs = test: Immunofluorescence of tight junction proteins ZO-1 and claudin-5; format: cell-based, human; conditions: 48 h treatment
# Protocol: After 48 h of treatments with or without KBs, BLECs were fixed and permeabilized as described in Table 1. Then, a 30-min blocking with PBS-CMF (0.2 g·L^−1 KH2PO4 , 8.0 g·L^−1 NaCl, 2.87 g·L^−1 Na2HPO4-12H2O, and 0.2 g·L^−1 KCl) with 10% (v/v) normal goat serum (NGS) was performed. Then, cells were incubated for 60 min with the primary antibody in PBS-CMF supplemented with 2% NGS at room temperature (RT), against the target protein as described in Table 1.
# After three washes in PBS-CMF supplemented with 2% NGS, the cells were incubated with secondary polyclonal antibody (goat anti-rabbit Alexa 568, A11036, Molecular Probes, Eugene, OR, USA) diluted 1:500 in PBS-CMF supplemented with 2% NGS in the dark for 30 min at RT. Hoechst 33358 was used for nuclei staining. After mounting with Mowiol (Sigma-Aldrich) containing 1,4-diazabicyclo [2.2.2]octane (Sigma-Aldrich), images were taken using a Leica microscope (DMRD; Leica Microsystems, Wetzlar, Germany) and processed using ImageJ32 software.
# MCT1 = test: Western blot of MCT1 protein level in BLECs; format: cell-based, human; conditions: 48 h, 20 mM AcAc, 20 mM βHB or ratio (20 mM AcAc/20 mM βHB), Western blot normalized to β-actin, at least three independent experiments
# [3] = test system: human in vitro BBB model (BLECs); test: βHB concentration in the compartments of the in vitro BBB model; format: in vitro ADME; conditions: 20 mM βHB added apically, 48 h
# Protocol: (§1) During this time, the glucose and βHB concentrations were measured in both the apical compartment and the basolateral compartment. The Precision-Xtra meter (Abbott Labs, Abbott Park, IL, USA) with a glucose or β-ketone sticks was used. In these assays, the glucose and βHB concentrations measured by the sticks were representative of the glucose and βHB present in the culture medium. Data were expressed in mmol·L^−1 for βHB and in g·L^−1 for glucose. The βHB concentration within BLECs was measured at 48 h following the treatment. Briefly, after medium removal, BLECs were washed twice with RH buffer and lysed with RIPA lysis buffer (Millipore Corporation, Burlington, MA, USA). The βHB concentration in the BLECs was normalized by the protein amount using Bradford assay (Bio-rad, Munich, Germany). The amount of βHB into the supernatant was assayed using β-ketone sticks, as described above. The βHB concentration was verified in the culture medium without cells at 37 °C and 5% CO2 to ensure the stability of βHB.
# [4] = Stability of βHB in culture medium; format: physicochemical; conditions: 37 °C, 5% CO2, over 48 h, β-ketone sticks
# Protocol: as §1
# GLUT1 = test: Western blot of GLUT1 protein level in BLECs; format: cell-based, human; conditions: 48 h, 20 mM βHB or ratio, Western blot normalized to β-actin, at least three independent experiments
# LRP1 = test: Western blot of LRP1 protein level in BLECs; format: cell-based, human; conditions: 48 h, 20 mM βHB or ratio, Western blot normalized to β-actin, at least three independent experiments
# PICALM = test: Western blot of PICALM protein level in BLECs; format: cell-based, human; conditions: 48 h, 20 mM βHB or ratio, Western blot normalized to β-actin, at least three independent experiments
# PC12 cells = PC12 cells exposed in 0–20 mM βHB; cited from earlier work
# Source text: For a few years now, there has been an increased focus on the role of the transport of Aβ peptides across the blood–brain barrier (BBB). It appears that increasing the clearance or reducing the entry of Aβ peptides in the brain could be a promising therapeutic approach for counteracting the pathogenic processes observed in AD [52]. In recent years, there has been mounting interest in the possible utilization of a ketogenic diet (KD) or ketone body (KB) supplementations in the treatment of AD [53, 54]. On the basis of KBs’ beneficial effects on the CNS, and the lack of publ ...
molecule,measurement,setting,value
"COc1cc2c(cc1OC)CN(CCc1ccc(NC(=O)c3cccc4c(=O)c5cccc(OC)c5[nH]c34)cc1)CC2 [elacridar, Elacridar, reference compound]",effect on the increased basolateral-to-apical Aβ1–40Cy5 peptide transport after ratio KB treatment,[1],abolished
same,effect on basolateral-to-apical transport of [3H]inulin after ratio KB treatment,[2],not affected
OC[C@@H](O)[C@@H](O)[C@H](O)[C@H](O)CO [mannitol],increase in PeLY values compared to non-treated cells,"BLEC monolayer; mannitol treatment of the human in vitro BBB model, p-value ≤ 0.0001",620.6%
same,staining of tight junction proteins ZO-1 and claudin-5 (intercellular contacts),BLECs,interruption in the staining for ZO-1 and claudin-5 protein
"CC(=O)CC(=O)O [AcAc, acetoacetate]",decrease in PeLY compared to the control,"BLEC monolayer; 20 mM, 48 h treatment of BLECs, p-value ≤ 0.0001",14.6%
same,increase of MCT1 protein level compared to the control,MCT1,35.9%
same,decrease of apical-to-basolateral [3H]inulin transport,"[2]; after 48 h 20 mM AcAc, scintillation counting, p-value = 0.0005",12.9%
"CC(O)CC(=O)O (stereo not drawn) [βHB, Beta-hydroxybutyric acid]",βHB concentration in the BLEC,[3],~ 0.5 mM
same,βHB concentration in the apical compartment,[3],~ 8.5 mM
same,βHB concentration in the basolateral compartment,[3],~ 6.6 mM
same,initially added βHB not detectable,"[3]; 37 °C, 5% CO2",21.4%
same,"βHB in BLECs, % of the total amount of βHB","[3]; 37 °C, 5% CO2, RIPA lysate, β-ketone sticks, mean of three independent experiments",2.4%
same,"βHB in the apical (luminal) compartment, % of the total amount of βHB","[3]; 37 °C, 5% CO2, β-ketone sticks (Precision-Xtra meter), mean of three independent experiments",42.9%
same,"βHB in the basolateral (abluminal) compartment, % of the total amount of βHB","[3]; 37 °C, 5% CO2, β-ketone sticks, mean of three independent experiments",33.3%
same,stability of βHB in the culture medium,[4],stable
same,increase of MCT1 protein level compared to the control,MCT1,24.9%
same,increase of GLUT1 protein level compared to the control,GLUT1,51.9%
same,upregulation of LRP1 protein level compared to the control,LRP1,109.3%
same,increase of PICALM protein level compared to the control,PICALM,39.1%
same,cell viability,PC12 cells,95%
Lucifer Yellow CH dilithium salt,"endothelial lucifer yellow permeability (PeLY), control conditions","BLEC monolayer; untreated BLECs, LY 50 µM in RH buffer, apical-to-basolateral, 1 h, fluorescence 432/538 nm, mean ± SEM, three independent experiments in triplicate",0.92 ± 0.03 × 10^−3 cm∙min^−1
B1,effect on the increased basolateral-to-apical Aβ1–40Cy5 peptide transport after ratio KB treatment,[1],abolished
same,effect on basolateral-to-apical transport of [3H]inulin after ratio KB treatment,[2],not affected
